Patent US20220265646A1, “PIEZO AGONISTS FOR PREVENTING OR REVERTING ABNORMAL AMYLOID DEPOSITION” (ITÄ-SUOMEN YLIOPISTO, priority 2019, published 2022)

Tests used:
primary cortical neurons = assay: Measurement of neurite outgrowth in primary cortical neurons; format: cell-based, mouse; details: 5 μM Yoda1, imaging over 150 hours, versus vehicle
Experimental: Measurement of neurite outgrowth in primary cortical neurons. Primary cortical neuron cultures were prepared from mouse embryos of embryonic day 15. The cortices were dissected, and tissue dissociated with 0.0125% trypsin (for 15 min at 37° C., Sigma-Aldrich, St. Louis, Mo., USA). After trypsin inactivation and washing the cells were counted and plated on 48-well-plates (coated with poly-D-lysine, Sigma-Aldrich, St. Louis, Mo., USA) at a density of 125 000 cells/well or on 6-well-plates at a density of 1.8 million cells/well in Neurobasal media supplemented with 2% B27 and 500 μM L-glutamine (all ThermoFisher Scientific, Waltham, Mass., USA) and 10 μg/ml of gentamicin (Sigma Aldrich, St. Louis, Mo., USA). On day 3 or 5 in vitro (DIV) the neurons were fed by changing 50% of media. The neurons were placed in IncuCyte® S3 Live Cell Analysis System (Essen
BioScience Ltd., Hertfordshire, UK) on DIV 0 and treated with 5 μM Yoda1 (Tocris, Bio-Techne Ltd., Abingdon, Oxfordshire, UK) once on DIV 0 or daily until DIV 7, and images were taken every 8 hours for the analysis of neurite length and branch points.

N2a cells = assay: Apoptosis assay in N2a cells under hypoxia; format: cell-based; details: 5 μM Yoda1 three days, 1% hypoxia 24 h
Experimental: Apoptosis assay in N2a cells. N2a cells were treated with 5 μM Yoda1 or vehicle for three consecutive days and exposed to 1% hypoxia as described above for 24 h before collecting the cells for apoptosis assay. The apoptotic cells were labeled with APC Annexin Ready Flow -dye (1:12.5 dilution, Invitrogen, Carlsbad, Calif., USA) in Annexin V Binding Buffer (10 mM HEPES, 150 mM NaCl, 2.5 mM CaCl2 in PBS, pH 7.4). 4′,6-Diamidino-2-Phenylindole, Dilactate (DAPI; Invitrogen, Carlsbad, Calif., USA) staining was added at 1:3300 dilution to label late apoptotic and necrotic cells. The samples were run with CytoFLEX S instrument (Beckman Coulter Life Sciences, Indianapolis, Ind., USA), and the results were analysed with CytExpert software (version 2.3.0.84, Beckman Coulter Life Sciences, Indianapolis, Ind., USA). The results of hypoxic samples were normalized to corresponding normoxic samples.

SMILES: Clc1cccc(Cl)c1CSc1nnc(-c2cnccn2)s1 [Yoda1]
- branch points of neurites (primary cortical neurons): more branching points
- neurite length (primary cortical neurons): extended neurite length
- hypoxia-induced early apoptosis (N2a cells): almost completely block
- hypoxia-induced late apoptosis (N2a cells): almost completely block
